The subject of series [1] is peptide-pulsed Epstein-Barr Virus-transformed B-lymphoblastoid cell line cells. Kind of series: Chromium release assay, subject 18 T-cell clones as effectors. In kind it is cell-based, human. As to conditions: clones #83-18 and #87-18. How it is done:
(§1) To identify putative restricting Human Leukocyte Antigen class I molecule, enzyme-linked immunospot assays were performed, as described above, using autologous Epstein-Barr Virus-transformed B-lymphoblastoid cell line cells sharing one or a few class I molecules with the subjects. The results were confirmed using chromium release assays in which at least two autologous Epstein-Barr Virus-transformed B-lymphoblastoid cell line cells expressing the putative Human Leukocyte Antigen class I molecule were tested. The Epstein-Barr Virus-transformed B-lymphoblastoid cell line cells were labeled with 100 μCi of sodium chromate (Na2^51CrO4), and were incubated with 10 μM of positive peptide. After plating the cells in 96-wells plate at 3×10^3/well, effector cells were added at multiple effector to target cell (E:T) ratios. After 5 hr of incubation, the supernatants were harvested and radioactivity was counted with a gamma counter (Packard Instruments, Meriden, Conn.). Percentage specific lysis was calculated as described (39).

Series [2] relates to HPV 16 E6 peptide-specific T-cell clones (subject 18). The class given is cell-based, human. Particulars: eight screen-positive T-cell clones of subject 18; HPV16 E6 121-145 region; 10 μM.
For the next series, the system named is CD8 T-cell. Kind of series: ELISPOT assay of CD8 T-cell responses in women followed for abnormal Pap smear. Particulars: women with abnormal Pap smear. In kind it is cell-based, human. How it is done:
Women who were followed, but untreated for abnormal Pap smear results, were enrolled. HPV-DNA testing using the Linear Array HPV Geotyping Test (Roche Diagnostics, Indianapolis, Ind.) and enzyme-linked immunospot (ELISPOT) assay using the HPV 16 E6 and E7 antigens were performed. The subjects were categorized into three groups: regressor (n=32), persistor/progressor (n=33), or indeterminate (n=20) based on comparisons of pathological diagnoses (Pap smear or biopsy) between the last clinic visit and the current clinic visit at which blood samples were collected.

Series [3] relates to HPV 16 E6 peptide-specific T-cell clones (subject 2). The class given is cell-based, human.
The subject of series [4] is Human Leukocyte Antigen class I molecule. Kind of series: Identification of the restricting Human Leukocyte Antigen molecules. In kind it is cell-based. The protocol: as §1
Series [5] concerns peptide-pulsed Epstein-Barr Virus-transformed B-lymphoblastoid cell line cells. Kind of series: Chromium release assay, subject 2 T-cell clones as effectors. As to conditions: clones #76-2 and #78-2; three allogeneic B-LCL expressing HLA-B62; 10 μM peptide. The class given is cell-based, human. How it is done:
as §1

The test system of series [6] is Human Leukocyte Antigen-B18. Particulars: healthy donor PBMC; cited from earlier work.
A further series concerns CD4+ T-cell. Kind of series: Interferon-γ ELISPOT assay of CD4+ T-cell responses in subjects with abnormal Pap smear. In kind it is cell-based, human. How it is done:
The role of CD4+ T-cell responses to the HPV-16 E6 and E7 proteins was examined in the outcomes of subjects being studied for abnormal Papanicolaouu (Pap) smear results. Subjects with a recent history of abnormal Papanicolaouu smear were eligible, and colposcopy guided biopsy was performed at enrollment. Interferon-γ enzyme-linked immunospot assay, and fluorescent activated cell sorter analysis were performed. Subjects with histological diagnoses of cervical intraepithelial neoplasia 1, 2, or 3 were considered to have short-term persistence of cervical abnormality and were called “persistors” (n=51) while those of normal histology were designated to be “regressors” (n=33). For the CD4+ T-cell responses, not only were the responses to E6 overall (Table 8) associated with a favorable clinical outcome, but also to a number of regions within the E6 protein. Furthermore, the regressors were more likely to have 2 or more E6-positive or E7-positive peptide regions as compared to the persistors (p=0.0035 or p=0.042 respectively) (Table 9).

The subject of series [7] is Human Leukocyte Antigen-matched HPV16 E7 11-20-pulsed targets. Particulars: cited from earlier work.
Where [8] appears, read: high-risk HPV-positive subjects.
The mark [9] stands for this setting: subjects positive for HPV-16 related types.

Regarding “E6 131-145: 15-mer peptide in the HPV16 E6 121-145 region (RFHNIRGRWTGRCMS; UniProt P03126 131-145, looked up, fragment)”, the “chromium release assay result” value in [1] (autologous B-LCL and B-LCL expressing A68 or A6801) is recorded as “positive”; in series [1] (other allogeneic B-LCL including HLA-6802), “negative”. In series [2], the “enzyme-linked immunospot response to individual 15-mer peptides” value is given as “positive”.

With “EPDRAHYNIVTFCCKCDSTLRLCVQ (E7 46-70 peptide from immunodominant epitope region of Human Papilloma Virus 16 E7 protein) [SEQ ID NO. 30]”, the “Responses (number of immune responses detected towards the region)” value in the series on CD8 T-cell came to 10.

Regarding “KFYSKISEY (E6 75-83 peptide from immunodominant epitope region of Human Papilloma Virus 16 E6 protein) [SEQ ID NO. 1]”, the “serial dilution of the two peptides in enzyme-linked immunospot assay” value in series [3] (10^−5M to 10^−10M) is “equivalent”. In addition, the “recognition of peptide-pulsed B-LCL by E6 75-83-specific T cell clones” value in [3] (clones #76-2 and #78-2, autologous and five allogeneic HLA-B62 B-LCL, 10 μM) is on record as “recognized”. In series [3] (subject 2 T-cell clones), the “number of spot forming units, 9-mer compared with surrounding 10-mers and 8-mers within” value is “comparable number of spot forming units”; the “spot forming units per well, series of 9-mer peptides within E6 71-85” value is “most number of spot forming units per well”. Also, the “Human Leukocyte Antigen Restriction Element” value in series [4] is “HLA-B62”. In [5], the “lysis of peptide-pulsed B-LCL in chromium release assay” value is “lysed”.

With “QAEPDRAHY (E7 44-52 peptide from immunodominant epitope region of Human Papilloma Virus 16 E7 protein) [SEQ ID NO. 28]”, in series [6], the “Human Leukocyte Antigen restriction” value is listed as “Human Leukocyte Antigen-B18”.

As for “RREVYDFAFRDLCIVYRDGNPYAVC (E6 46-70 peptide from immunodominant epitope region of Human Papilloma Virus 16 E6 protein) [SEQ ID NO. 31]”, the “Responses (number of immune responses detected towards the region)” value in the series on CD8 T-cell came to 8.

As for “YGTTLEQQYNKPLCDLLIRCINCQK (E6 91-115 peptide from immunodominant epitope region of Human Papilloma Virus 16 E6 protein) [SEQ ID NO. 29]”, the “Responses (number of immune responses detected towards the region)” value in the series with CD8 T-cell is recorded as 11. Also, the “CD4+ T-cell responses, persistors” value in the series with CD4+ T-cell (all subjects) was determined as 2%; in the series on CD4+ T-cell (setting [8]), 2%; with CD4+ T-cell (setting [9]) it was 0%. The figures for the “CD4+ T-cell responses, regressors” value in the series with CD4+ T-cell (all subjects), in the series on CD4+ T-cell (setting [8]) and with CD4+ T-cell (setting [9]) were 18%, 23% and 22%, respectively.

Turning to YMLDLQPETT [SEQ ID NO. 26], the “patients whose cytotoxic T lymphocytes lysed peptide-pulsed targets” value in series [7] (cervical cancer patients) was “two of three patients”. Further, the “Human Leukocyte Antigen restriction” value in [7] is given as “Human Leukocyte Antigen-A2”.

These data come from patent US8926961B2, “HPV E6 protein T cell epitopes and uses thereof” (Board Of Trustees of The University Of Arkansas, priority 2007, dated 2015).
